Laboratory results published in ChEMBL document CHEMBL3044753, “Polyamines May Modulate Both G Protein-Coupled Receptors and G Proteins” (Med Chem Res, 2004).
The source made the active and inactive calls. The rule behind the calls is not given here.

Tests used:
Right cardiac atrium [1] = assay: Negative ionotropic activity in electrically-paced Cavia porcellus (guinea pig) right atrium measured after 60 min by isometric transducer analysis in presence of ANR 83; assay type: functional, tissue-based
Left cardiac atrium [2] = assay: Negative ionotropic activity in electrically-paced Cavia porcellus (guinea pig) left atrium measured after 60 min by isometric transducer analysis in presence of pimozide; assay type: functional, tissue-based
[3] = molecular target: T1, Muscarinic acetylcholine receptor M5 (Homo sapiens) (UniProt P08912); assay: Binding affinity to Homo sapiens (human) recombinant muscarinic M5 receptor expressed in CHO cells assessed as [35S]GTPgammaS binding; assay type: functional, cell-based
T1 sequence (whole entry): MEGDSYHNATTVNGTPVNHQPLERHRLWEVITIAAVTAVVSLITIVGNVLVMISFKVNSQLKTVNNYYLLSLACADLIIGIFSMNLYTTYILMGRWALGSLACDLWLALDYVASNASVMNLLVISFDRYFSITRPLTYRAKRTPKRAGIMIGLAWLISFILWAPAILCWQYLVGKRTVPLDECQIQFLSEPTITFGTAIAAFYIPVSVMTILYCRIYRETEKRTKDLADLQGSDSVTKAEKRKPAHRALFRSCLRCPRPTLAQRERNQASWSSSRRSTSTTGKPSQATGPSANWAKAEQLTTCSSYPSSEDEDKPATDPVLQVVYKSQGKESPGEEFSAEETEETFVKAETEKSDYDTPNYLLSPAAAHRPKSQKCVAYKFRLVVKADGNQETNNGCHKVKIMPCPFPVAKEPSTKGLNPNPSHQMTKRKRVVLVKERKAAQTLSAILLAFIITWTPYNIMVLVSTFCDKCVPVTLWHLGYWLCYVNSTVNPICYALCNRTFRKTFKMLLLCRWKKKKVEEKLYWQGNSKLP

Left cardiac atrium [4] = assay: Negative ionotropic activity in electrically-paced Cavia porcellus (guinea pig) left atrium measured after 60 min by isometric transducer analysis in presence of benextramine/4-DAMP mustard relative to N-dodecyl lysine amide; assay type: functional
[5] = molecular target: T2, Muscarinic acetylcholine receptor M2 (Homo sapiens) (UniProt P08172); assay: Allosteric modulation of Homo sapiens (human) recombinant muscarinic M2 receptor expressed in CHO cells assessed as inhibition of N-[3H]methylscopalamine dissociation at 20 uM incubated at 1 hr post N-[3H]methylscopalamine addition measured after 5 min by filter binding assay; assay type: cell-based
T2 sequence (whole entry): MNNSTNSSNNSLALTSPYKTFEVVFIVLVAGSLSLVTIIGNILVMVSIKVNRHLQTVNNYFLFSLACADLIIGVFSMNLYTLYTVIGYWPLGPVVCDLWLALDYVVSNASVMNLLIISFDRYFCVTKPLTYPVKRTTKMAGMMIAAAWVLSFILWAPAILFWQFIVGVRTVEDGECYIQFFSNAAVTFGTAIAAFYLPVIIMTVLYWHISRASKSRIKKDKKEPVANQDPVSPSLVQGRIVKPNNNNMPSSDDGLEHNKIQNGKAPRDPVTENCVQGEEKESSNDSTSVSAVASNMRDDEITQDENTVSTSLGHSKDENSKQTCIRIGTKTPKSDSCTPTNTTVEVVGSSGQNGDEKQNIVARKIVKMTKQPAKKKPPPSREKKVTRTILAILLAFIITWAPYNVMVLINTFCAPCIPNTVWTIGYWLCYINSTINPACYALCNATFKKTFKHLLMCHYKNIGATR

[6] = molecular target: Muscarinic acetylcholine receptor M3 (Homo sapiens) (UniProt P20309); assay: Allosteric modulation of Homo sapiens (human) recombinant muscarinic M3 receptor expressed in CHO cells assessed as inhibition of carbachol-induced [35S]GTPgammaS binding; assay type: functional, cell-based
Muscarinic acetylcholine receptor M3 (Homo sapiens), sequence (P20309 whole entry, looked up): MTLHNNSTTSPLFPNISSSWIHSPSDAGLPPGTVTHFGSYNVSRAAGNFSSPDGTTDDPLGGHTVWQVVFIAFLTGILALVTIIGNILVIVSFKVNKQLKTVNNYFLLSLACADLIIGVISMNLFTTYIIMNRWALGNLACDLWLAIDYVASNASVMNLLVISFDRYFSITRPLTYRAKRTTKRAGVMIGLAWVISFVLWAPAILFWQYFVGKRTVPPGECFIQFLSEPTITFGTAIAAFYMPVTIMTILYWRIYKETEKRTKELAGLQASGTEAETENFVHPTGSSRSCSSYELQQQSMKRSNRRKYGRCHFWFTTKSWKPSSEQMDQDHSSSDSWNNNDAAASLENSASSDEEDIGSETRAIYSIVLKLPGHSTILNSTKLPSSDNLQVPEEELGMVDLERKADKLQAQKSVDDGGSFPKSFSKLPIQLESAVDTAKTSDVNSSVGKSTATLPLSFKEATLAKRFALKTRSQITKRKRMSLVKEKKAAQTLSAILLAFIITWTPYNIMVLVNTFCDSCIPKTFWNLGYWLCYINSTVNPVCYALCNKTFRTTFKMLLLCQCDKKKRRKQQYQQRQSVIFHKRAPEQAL

[7] = molecular target: T3, Muscarinic acetylcholine receptor M1 (Homo sapiens) (UniProt P11229); assay: Binding affinity to Homo sapiens (human) recombinant muscarinic M1 receptor expressed in CHO cells assessed as [35S]GTPgammaS binding; assay type: functional, cell-based
T3 sequence (whole entry): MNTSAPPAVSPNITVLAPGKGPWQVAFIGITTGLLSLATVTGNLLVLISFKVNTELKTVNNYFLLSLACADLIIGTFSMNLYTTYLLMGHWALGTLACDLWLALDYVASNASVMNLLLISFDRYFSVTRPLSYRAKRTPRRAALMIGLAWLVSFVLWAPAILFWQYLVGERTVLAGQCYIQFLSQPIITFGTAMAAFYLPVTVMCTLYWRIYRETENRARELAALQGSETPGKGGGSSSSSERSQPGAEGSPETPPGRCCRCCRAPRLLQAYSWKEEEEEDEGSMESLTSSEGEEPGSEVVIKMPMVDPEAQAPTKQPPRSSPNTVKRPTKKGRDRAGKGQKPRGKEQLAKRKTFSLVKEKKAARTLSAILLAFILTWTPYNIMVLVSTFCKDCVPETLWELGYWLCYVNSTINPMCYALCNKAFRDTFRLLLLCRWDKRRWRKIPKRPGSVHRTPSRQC

Left cardiac atrium [8] = assay: Reversible negative ionotropic activity in electrically-paced Cavia porcellus (guinea pig) left atrium incubated for 30 min followed by compound-washout measured after 3 hr by isometric transducer analysis; assay type: functional, tissue-based
Right cardiac atrium [9] = assay: Negative ionotropic activity in electrically-paced Cavia porcellus (guinea pig) right atrium measured after 60 min by isometric transducer analysis in presence of prazosin; assay type: functional, tissue-based
Right cardiac atrium [10] = assay: Negative ionotropic activity in electrically-paced Cavia porcellus (guinea pig) right atrium measured after 60 min by isometric transducer analysis in presence of bupranolol; assay type: functional, tissue-based
Right cardiac atrium [11] = assay: Negative […] activity in electrically-paced Cavia porcellus (guinea pig) right atrium assessed as effect on force measured after 60 min by isometric transducer analysis in absence of benextramine/4-DAMP mustard; assay type: functional, tissue-based; settings: 1 h
Left cardiac atrium [12] = assay: Negative ionotropic activity in electrically-paced Cavia porcellus (guinea pig) left atrium measured after 60 min by isometric transducer analysis in absence of benextramine/4-DAMP mustard relative to N-dodecyl lysine amide; assay type: functional
Right cardiac atrium [13] = assay: Reversible negative ionotropic activity in electrically-paced Cavia porcellus (guinea pig) right atrium incubated for 30 min followed by compound-washout measured after 3 hr by isometric transducer analysis; assay type: functional, tissue-based
Left cardiac atrium [14] = assay: Negative ionotropic activity in electrically-paced Cavia porcellus (guinea pig) left atrium measured after 60 min by isometric transducer analysis in presence of bupranolol; assay type: functional, tissue-based
Left cardiac atrium [15] = assay: Negative ionotropic activity in electrically-paced Cavia porcellus (guinea pig) left atrium measured after 60 min by isometric transducer analysis in presence of benextramine; assay type: functional, tissue-based
Left cardiac atrium [16] = assay: Negative ionotropic activity in electrically-paced Cavia porcellus (guinea pig) left atrium measured after 60 min by isometric transducer analysis in absence of benextramine/4-DAMP mustard; assay type: functional, tissue-based; settings: 1 h
[17] = molecular target: T3, Muscarinic acetylcholine receptor M1 (Homo sapiens); assay: Allosteric modulation of Homo sapiens (human) recombinant muscarinic M1 receptor expressed in CHO cells assessed as inhibition of carbachol-induced [35S]GTPgammaS binding; assay type: functional, cell-based
Right cardiac atrium [18] = assay: Negative ionotropic activity in electrically-paced Cavia porcellus (guinea pig) right atrium measured after 60 min by isometric transducer analysis in presence of 4-DAMP mustard; assay type: functional, tissue-based
Left cardiac atrium [19] = assay: Negative ionotropic activity in electrically-paced Cavia porcellus (guinea pig) left atrium measured after 60 min by isometric transducer analysis in presence of 4-DAMP mustard; assay type: functional, tissue-based
Left cardiac atrium [20] = assay: Negative ionotropic activity in electrically-paced Cavia porcellus (guinea pig) left atrium measured after 60 min by isometric transducer analysis in presence of benextramine/4-DAMP mustard; assay type: functional, tissue-based; settings: 1 h
Left cardiac atrium [21] = assay: Negative ionotropic activity in electrically-paced Cavia porcellus (guinea pig) left atrium measured after 60 min by isometric transducer analysis in presence of thioperamide; assay type: functional, tissue-based

Compound | Activity (Right cardiac atrium [1]) | Activity (Left cardiac atrium [2]) | Activity [3] | Efficacy (Left cardiac atrium [4]) [%] | inhibition [5] | Activity [6] | Activity [7] | Activity (Left cardiac atrium [8]) | Activity (Right cardiac atrium [9]) | Activity (Right cardiac atrium [10]) | EC50 (Right cardiac atrium [11]) [nM] | Efficacy (Left cardiac atrium [12]) [%] | Activity (Right cardiac atrium [13]) | Activity (Left cardiac atrium [14]) | Activity (Left cardiac atrium [15]) | EC50 (Left cardiac atrium [16]) [nM] | Activity [17] | Activity (Right cardiac atrium [18]) | Activity (Left cardiac atrium [19]) | EC50 (Left cardiac atrium [20]) [nM] | also measured
COc1ccccc1CN1CCC(C2CCN(C(=O)CCCCCCC(=O)N3CCC(C4CCN(Cc5ccccc5OC)CC4)CC3)CC2)CC1 [PIPERTRAMINE AMIDE] | Active | Active | inactive | 85 | Active | Active | inactive | inactive | Active | Active | 3.89 | 90 | inactive | Active | Active | 3.09 | Active | Active | Active | 0.589 | Activity (Left cardiac atrium [21]): Active
COc1ccccc1CN1CCC(C2CCN(CCCCCCCCN3CCC(C4CCN(Cc5ccccc5OC)CC4)CC3)CC2)CC1 [PIPERTRAMINE] | Active | Active | inactive | 96 | Active | Active | inactive | inactive | Active | Active | 0.275 | 96 | inactive | Active | Active | 0.2 | Active | Active | Active | 0.331 | Activity (Left cardiac atrium [21]): Active
